Consider four compounds from patent US5212185A, “Piperidinyl-terminated alkylamino ethynyl alanine amino diol compounds for treatment of hypertension” (G. D. Searle & Co., priority 1992, dated 1993).

In general, pIC50 refers to −log10 of the IC50, conventionally taken in molar units. Read a low pIC50 as a large IC50.

pIC50: −log10 of the molar value. Square brackets hold non-standard residues; d marks the D form. Peptide text beside a SMILES is read from it. * marks the point of attachment. Sta = CC(C)C[C@H](N)[C@@H](O)CC(=O)O; Isovaleryl = CC(C)CC(=O)*

One test addresses T1, human renin (Homo sapiens, UniProt P00797).
T1 construct: purchased National Institute for Biological Standards, London
T1 sequence (P00797 67-406): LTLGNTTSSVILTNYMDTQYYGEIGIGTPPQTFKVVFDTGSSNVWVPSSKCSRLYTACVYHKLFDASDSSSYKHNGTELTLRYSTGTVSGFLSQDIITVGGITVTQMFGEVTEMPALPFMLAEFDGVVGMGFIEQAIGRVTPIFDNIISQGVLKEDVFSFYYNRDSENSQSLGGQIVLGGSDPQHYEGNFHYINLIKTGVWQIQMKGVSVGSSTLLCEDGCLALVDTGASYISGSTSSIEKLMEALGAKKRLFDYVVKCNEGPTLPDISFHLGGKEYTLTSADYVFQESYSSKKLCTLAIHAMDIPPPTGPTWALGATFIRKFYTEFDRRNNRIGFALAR
The experiment in a line: Human Renin Inhibition in vitro (angiotensin I generation by radioimmunoassay). As to conditions: pH 7.4, 37° C., two hours, human plasma. Type of test: biochemical. The method, then: Compounds of Formula I were evaluated as inhibitors of human renin in an in vitro assay, as follows: This human renin inhibition test has been previously described in detail [Papaioannou et al., Clinical and Experimental Hypertension, A7(9), 1243-1257 (1985)]. Human renin was obtained from the National Institute for Biological Standards, London. An incubation mixture was prepared containing the following components: in a total volume of 0.25 mL: 100 mM Tris-acetate buffer at pH 7.4, 25×10^-6 Goldblatt units of renin, 0.05 mL of plasma from human volunteers taking oral contraceptives, 6.0 mM Na-EDTA, 2.4 mM phenylmethyl sulfonyl fluoride, 1.5 mM 8-hydroxyquinoline, 0.4 mg/mL bovine serum albumin (BSA), and 0.024 mg/mL neomycin sulfate. This mixture was incubated for two hours at 37° C. in the presence or absence of renin inhibitors. The produced angiotensin I was determined by radioimmunoassay (New England Nuclear kit). Test compounds to be assayed were dissolved in DMSO and diluted with 100mM Tris-acetate buffer at pH 7.4 containing 0.5% BSA to the appropriate concentration. The final concentration of organic solvent in the reaction mixture was less than 1%. Control incubations at 37° C. were used to correct for effects of organic solvent on renin activity.

The next test concerns hog renin. Conditions: after the injection of hog renin into nephrectomized rats; cited from earlier work.
The subject of a further test is pepsin. Conditions: cited from earlier work.
The next test deals with cathepsin D. Conditions: cited from earlier work.
A further test deals with renin. Conditions: cited from earlier work.
A further test has as its system acid proteases. As to conditions: cited from earlier work.

`C#CC[C@H](NC(=O)[C@@H](CC(=O)N(C)CCN1CCCCC1)Cc1ccccc1)C(=O)N[C@@H](CC1CCCCC1)[C@@H](O)[C@@H](O)CC(C)C` [Example 1] showed a pIC50 on human renin of 9.08.

The compound `C#CC[C@H](NC(=O)[C@@H](CC(=O)N(C)CCN1Cc2ccccc2C1)Cc1ccccc1)C(=O)N[C@@H](CC1CCCCC1)[C@@H](O)[C@@H](O)CC(C)C` [Example 2] gave a pIC50 against human renin of 9.25.

As to `CC(C)CC(=O)N[C@H](C(=O)N[C@H](C(=O)N[C@@H](CC(C)C)[C@@H](O)CC(=O)N[C@@H](C)C(=O)N[C@@H](CC(C)C)[C@@H](O)CC(=O)O)C(C)C)C(C)C` [pepstatin] (Isovaleryl-VV[Sta]A[Sta]-OH), the “reduce blood pressure in vivo” value in the test with hog renin was “found to reduce blood pressure in vivo”. Moreover, in the test on pepsin, the inhibition of pepsin entry was “inhibitor of aspartyl proteases such as pepsin”. In the test on cathepsin D, the “inhibition of cathepsin D” value is “inhibitor of aspartyl proteases such as pepsin, cathepsin D”. In the test on renin, the inhibition of renin entry was “inhibitor of aspartyl proteases such as pepsin, cathepsin D and renin”. Also, the “inhibiting acid proteases in addition to renin” value in the test on acid proteases is listed as “inhibiting acid proteases in addition to renin”.

Compound `C#CC[C@H](NC(=O)[C@@H](CC(=O)N(C)CCN1CC2CCC(CC2)C1)Cc1ccccc1)C(=O)N[C@@H](CC1CCCCC1)[C@@H](O)[C@@H](O)CC(C)C` [Example 3] gave a pIC50 against human renin of 8.92.
